According to patent US8183235B2, “Dihydronaphthalene compound and use thereof” (Tokyo University of Science Educational Foundation …, priority 2007, dated 2012):
Where a name gives a salt, the structure may show the parent alone. Residues, ends and D or L forms follow the SMILES beside them. *: point of attachment. Cbz = O=C(OCc1ccccc1)*

What was measured:
[1] = biological target: 20S proteasome chymotrypsin-like activity (Homo sapiens, UniProt P28074); assay: Chymotrypsin-like activity inhibition test; assay type: biochemical; settings: for remaining activity at 10 µM: read-out: % Control, Chymotrypsin-like Activity
[2] = system: OVCAR-5; assay: Proliferation inhibition of ovarian cancer cells; assay type: cell-based; settings: Homo sapiens
Procedure: (§1) As a comparison for the inhibition activity, tamoxifen citrate (TAM) was used. In the Table, the concentration units are μM.
(§2) In the same way as in Example 9, the proliferation inhibition activity of naforidaifens A to G was measured with respect to five types of ovarian cancer cells (OVCAR-3, OVCAR-4, OVCAR-5, OVCAR-8, AND SK-OV-3). In the Table, the concentration units are μM.

[3] = system: OVCAR-3; assay: Proliferation inhibition of ovarian cancer cells; assay type: cell-based; settings: Homo sapiens
Procedure: as §1, §2

[4] = system: OVCAR-8; assay: Proliferation inhibition of ovarian cancer cells; assay type: cell-based; settings: Homo sapiens
Procedure: as §1, §2

[5] = system: OVCAR-4; assay: Proliferation inhibition of ovarian cancer cells; assay type: cell-based; settings: Homo sapiens
Procedure: as §1, §2

[6] = system: SK-OV-3; assay: Proliferation inhibition of ovarian cancer cells; assay type: cell-based; settings: Homo sapiens
Procedure: as §1, §2

[7] = biological target: 20S proteasome caspase-like activity (Homo sapiens, UniProt P28072); assay: Caspase-like activity inhibition test; assay type: biochemical; settings: for remaining activity at 10 µM: read-out: % Control, Caspase-like Activity
[8] = biological target: 20S proteasome trypsin-like activity (Homo sapiens, UniProt Q99436); assay: Trypsin-like activity inhibition test; assay type: biochemical; settings: for remaining activity at 10 µM: read-out: % Control, Trypsin-like Activity
[9] = system: Cathepsin B; assay: Cathepsin-like activity inhibition test; assay type: biochemical
Procedure: Cathepsin-Like Activity Inhibition Test
(§3) 1) To 20S proteasome, naforidaifen B adjusted to a concentration of 10 μM was added, and incubated at 30° C. for 10 min.
2) To the above test system, fluorescence labeled cathepsin including a 20S proteasome segmenting sequence was added, and reacted for 1 hr at 30° C.
(§4) 3) The fluorescent substance (AMC) released by the above reaction was excited with 360 nm light and assayed with 460 nm light.
(§5) 4) A test system to which naforidaifen B was not added was measured in the same way as (1) to (3) above, and the enzyme activity for the case of using naforidaifen B was measured.
(§6) 5) Stepwise diluted solutions containing naforidaifen B were prepared, and after carrying out the same evaluations as in (1) to (4), the 50% inhibition concentration (IC50) was determined.
6) As a positive control of the enzyme activity, the known proteasome inhibitor Clasto-Lactacystin β-Lactone (Lactacystin activator) and MGI32 were evaluated with the steps (1) to (5).

[10] = system: MKN45; assay: Proliferation inhibition of stomach cancer cells; assay type: cell-based; settings: Homo sapiens, MKN-45
Procedure: as §1
(§7) In the same way as in Example 9, the proliferation inhibition activity of naforidaifens A to G was measured with respect to six types of stomach cancer cells (St-4, MKN1, MKN7, MKN28, MKN45, MKN74). In the Table, the concentration units are μM.

[11] = system: MKN1; assay: Proliferation inhibition of stomach cancer cells; assay type: cell-based; settings: Homo sapiens, MKN-1
Procedure: as §1, §7

[12] = system: MKN7; assay: Proliferation inhibition of stomach cancer cells; assay type: cell-based; settings: Homo sapiens, MKN-7
Procedure: as §1, §7

[13] = system: MKN28; assay: Proliferation inhibition of stomach cancer cells; assay type: cell-based; settings: Homo sapiens, MKN-28
Procedure: as §1, §7

[14] = system: St-4; assay: Proliferation inhibition of stomach cancer cells; assay type: cell-based; settings: Homo sapiens
Procedure: as §1, §7

[15] = system: MKN74; assay: Proliferation inhibition of stomach cancer cells; assay type: cell-based; settings: Homo sapiens, MKN-74
Procedure: as §1, §7

[16] = system: SF-539; assay: Inhibition of propagation of central nervous system cancer cells (sulforhodamin B); assay type: cell-based; settings: Homo sapiens, 48 h; SF-539, two days of cultivation
Description: as §1

[17] = system: SF-268; assay: as above; assay type: cell-based; settings: Homo sapiens, 48 h; SF-268, two days of cultivation
Description: as §1

[18] = system: U251; assay: as above; assay type: cell-based; settings: Homo sapiens, U-251, 48 h; U251, two days of cultivation
Description: as §1

[19] = system: SNB-75; assay: as above; assay type: cell-based; settings: Homo sapiens, 48 h; SNB-75, two days of cultivation
Description: as §1

[20] = system: SNB-78; assay: as above; assay type: cell-based; settings: Homo sapiens, 48 h; SNB-78, two days of cultivation
Description: as §1

[21] = system: SF-295; assay: as above; assay type: cell-based; settings: Homo sapiens, 48 h; SF-295, two days of cultivation
Description: as §1

[22] = system: HCC2998; assay: Proliferation inhibition of colon cancer cells; assay type: cell-based; settings: Homo sapiens, HCC 2998
Procedure: as §1
(§8) In the same way as in Example 9, the proliferation inhibition activity of naforidaifens A to G was measured with respect to five types of colon cancer cells (HCC2998, KM-12, HT-29, HCT-15, and HCT-116). In the Table, the concentration units are μM.

[23] = system: HCT-116; assay: Proliferation inhibition of colon cancer cells; assay type: cell-based; settings: Homo sapiens
Procedure: as §1, §8

[24] = system: HCT-15; assay: Proliferation inhibition of colon cancer cells; assay type: cell-based; settings: Homo sapiens
Procedure: as §1, §8

[25] = system: KM-12; assay: Proliferation inhibition of colon cancer cells; assay type: cell-based; settings: Homo sapiens, KM12
Procedure: as §1, §8

[26] = system: HT-29; assay: Proliferation inhibition of colon cancer cells; assay type: cell-based; settings: Homo sapiens
Procedure: as §1, §8

[27] = biological target: α-chymotrypsin (Bos taurus, UniProt P00766); assay: α-Chymotrypsin-like activity inhibition test; assay type: biochemical
Procedure: α-Chymotrypsin-Like Activity Inhibition Test
as §3
2) To the above test system, fluorescence labeled α-chymotrypsin including a 20S proteasome segmenting sequence was added, and reacted for 1 hr at 30° C.
as §4, §5, §6
6) As a positive control of the enzyme activity, the well-known proteasome inhibitor Clasto-Lactacystin β-Lactone (Lactacystin activator) and MGI32 were evaluated with the steps (1) to (5).

[28] = biological target: 20S proteasome (Homo sapiens, UniProt P28072+P28074+Q99436); assay: Proteasome inhibition activity, overall judgement; assay type: biochemical; settings: for Proteasome selectivity: judgement; for The evaluations (proteasome inhibition activity): overall judgement positive/negative

CC(C)[C@H](O)[C@@]12NC(=O)[C@H](C)[C@@H]1OC2=O [Clasto-Lactacystin β-Lactone, reference compound]
IC50 [1]: 0.039 µM
% Control, Chymotrypsin-like Activity ([1]; Concentration 10 μM): 0%

CC(C)C[C@@H](C=O)NC(=O)[C@H](CC(C)C)NC(=O)[C@H](CC(C)C)NC(=O)OCc1ccccc1 [MG132, reference compound] (Cbz-Leu-Leu-Leu-aldehyde)
remaining activity at 10 µM [1]: 0%

c1ccc(C2=C(c3ccc(OCCN4CCCC4)cc3)c3ccc(OCCN4CCCC4)cc3CC2)cc1 [Naforidaifen B, 4-[4-(2-pyrrolidine-1-yl-ethoxy)phenyl]-7-(2-pyrrolidine-1-yl-ethoxy)-3-phenyl-1,2-dihydronaphthalene]
GI50 [2]: 1.62 µM
GI50 [3]: 1.58 µM
GI50 [4]: 3.8 µM
GI50 [5]: 1.32 µM
GI50 [6]: 3.09 µM
IC50 [7]: 2.5 µM
remaining activity at 10 µM [7]: 16.5%
IC50 [8]: 8.6 µM
remaining activity at 10 µM [8]: 35.3%
Cathepsin B inhibition [9]: none
GI50 [10]: 1.66 µM
GI50 [11]: 1.48 µM
GI50 [12]: 1.58 µM
GI50 [13]: 2.19 µM
GI50 [14]: 1.86 µM
GI50 [15]: 1.66 µM
GI50 [16]: 1.86 µM
GI50 [17]: 2.09 µM
GI50 [18]: 1.58 µM
GI50 [19]: 2 µM
GI50 [20]: 1.91 µM
GI50 [21]: 1.91 µM
IC50 [1]: 4.6 µM
remaining activity at 10 µM [1]: 27.1%
GI50 [22]: 1.58 µM
GI50 [23]: 1.26 µM
GI50 [24]: 2.34 µM
GI50 [25]: 1.95 µM
GI50 [26]: 1.45 µM
α-chymotrypsin inhibition [27]: none
Proteasome selectivity [28]: present
The evaluations (proteasome inhibition activity) [28]: positive

c1ccc(C2=C(c3ccc(OCCN4CCOCC4)cc3)c3ccc(OCCN4CCOCC4)cc3CC2)cc1 [Naforidaifen D, 4-[4-(2-morpholine-1-yl-ethoxy)phenyl]-7-(2-morpholine-1-yl-ethoxy)-3-phenyl-1,2-dihydronaphthalene]
GI50 [2]: 6.92 µM
GI50 [3]: 17.4 µM
GI50 [4]: 25.7 µM
GI50 [5]: 18.6 µM
GI50 [6]: 15.5 µM
IC50 [7]: 4.6 µM
remaining activity at 10 µM [7]: 21.9%
IC50 [8]: 4.1 µM
remaining activity at 10 µM [8]: 21.6%
Cathepsin B inhibition [9]: none
GI50 [10]: 16.6 µM
GI50 [11]: 18.6 µM
GI50 [12]: 19.5 µM
GI50 [13]: 45.7 µM
GI50 [14]: 15.5 µM
GI50 [15]: 19.5 µM
GI50 [16]: 15.8 µM
GI50 [17]: 38.9 µM
GI50 [18]: 15.5 µM
GI50 [19]: 20.4 µM
GI50 [20]: 28.8 µM
GI50 [21]: 14.5 µM
IC50 [1]: 6.8 µM
remaining activity at 10 µM [1]: 22.1%
GI50 [22]: 17.8 µM
GI50 [23]: 14.8 µM
GI50 [24]: 19.1 µM
GI50 [25]: 20 µM
GI50 [26]: 12.6 µM
α-chymotrypsin inhibition [27]: none
Proteasome selectivity [28]: present
The evaluations (proteasome inhibition activity) [28]: positive

CCN(CC)CCOc1ccc(C2=C(c3ccccc3)CCc3cc(OCCN(CC)CC)ccc32)cc1 [Naforidaifen E, 4-[4-(2-diethylamino-1-yl-ethoxy)phenyl]-7-(2-diethylamino-1-yl-ethoxy)-3-phenyl-1,2-dihydronaphthalene]
GI50 [2]: 1.58 µM
GI50 [3]: 1.86 µM
GI50 [4]: 2.45 µM
GI50 [5]: 2.19 µM
GI50 [6]: 1.91 µM
IC50 [7]: > 10 µM
remaining activity at 10 µM [7]: 54.6%
IC50 [8]: > 10 µM
remaining activity at 10 µM [8]: 162%
Cathepsin B inhibition [9]: none
GI50 [10]: 1.66 µM
GI50 [11]: 1.41 µM
GI50 [12]: 1.41 µM
GI50 [13]: 1.82 µM
GI50 [14]: 1.55 µM
GI50 [15]: 1.23 µM
GI50 [16]: 1.86 µM
GI50 [17]: 1.82 µM
GI50 [18]: 1.51 µM
GI50 [19]: 1.51 µM
GI50 [20]: 1.62 µM
GI50 [21]: 1.82 µM
IC50 [1]: 9.9 µM
remaining activity at 10 µM [1]: 49.6%
GI50 [22]: 1.58 µM
GI50 [23]: 1.2 µM
GI50 [24]: 1.58 µM
GI50 [25]: 1.95 µM
GI50 [26]: 0.813 µM
α-chymotrypsin inhibition [27]: none
Proteasome selectivity [28]: present
The evaluations (proteasome inhibition activity) [28]: positive

CC/C(=C(\c1ccccc1)c1ccc(OCCN(C)C)cc1)c1ccccc1 [TAM, tamoxifen citrate, reference compound]
GI50 [2]: 4.37 µM
GI50 [3]: 4.68 µM
GI50 [4]: 11.2 µM
GI50 [5]: 6.03 µM
GI50 [6]: 20 µM
GI50 [10]: 8.32 µM
GI50 [11]: 10.2 µM
GI50 [12]: 5.25 µM
GI50 [13]: 6.31 µM
GI50 [14]: 6.31 µM
GI50 [15]: 3.24 µM
GI50 [16]: 3.72 µM
GI50 [17]: 12 µM
GI50 [18]: 7.76 µM
GI50 [19]: 5.01 µM
GI50 [20]: 13.5 µM
GI50 [21]: 4.17 µM
GI50 [22]: 2.95 µM
GI50 [23]: 7.24 µM
GI50 [24]: 5.89 µM
GI50 [25]: 3.55 µM
GI50 [26]: 2.34 µM
